The source of these data is patent US20230304064A1, “AUTOMATED, DIGITAL DISPENSING PLATFORM FOR MICRODILUTION ANTIMICROBIAL SUSCEPTIBILITY TESTING” (priority 2016, published 2023).

Experiment [1] relates to Klebsiella pneumoniae strains expressing extended spectrum β-lactamases. The note with it: cited from earlier work.
The subject of experiment [2] is eighty de-identified Enterobacteriaceae clinical isolates. In words: organism not typed. It counts as cell-based. As to conditions: for Non-susceptible strains (%) / Non-susceptible strains n: eighty clinical isolates, reference microdilution, CLSI criteria, EUCAST for colistin. The protocol: K. pneumonia BIDMC12A is a previously described, carbapenem resistant clinical isolate (14) expressing a KPC-3 carbapenemase. The eighty de-identified Enterobacteriaceae clinical isolates (Table 1) used for verification studies were collected at our institution under IRB-approved protocols. All strains were minimally passaged and stored at -80° C. prior to use in this study.
Verification study: Digital dispensing and reference method testing were performed in parallel using the same inoculum preparation. Microdilution reference panels were pre-prepared and stored at -80° C. until use (less than 2 weeks). D300 test method panels were prepared fresh each day of use.
Accuracy was evaluated using established guidelines (16, 17). The MIC determined by the digital dispensing method was compared with the MIC determined by the broth microdilution reference method. Essential agreement, overall essential agreement, and categorical agreement were evaluated as described in the precision study.

For experiment [3], the system named is Klebsiella pneumoniae strains expressing extended spectrum β-lactamases. The note with it: cited from earlier work. This is another data set of the same source.
For experiment [4], the system named is carbapenem-resistant Klebsiella pneumoniae clinical isolates (blaKPC). In words: DDM (digital dispensing method) MIC testing of CRE isolates. The note with it: for MIC: Klebsiella pneumoniae, read-out: DDM modal MICs. It counts as cell-based. How it is done: (§1) Bacterial strains: The 10 de-identified CRE clinical isolates used in the study were collected at our institution under Institutional Review Board-approved protocols and were sequenced through the carbapenem-resistant Enterobacteriaceae genome initiative at the Broad Institute (Cambridge, MA). All contained a Klebsiella pneumoniae carbapenemase (blaKPC) gene and were colony-purified, minimally passaged, and stored at -80° C. prior to use in this study.
(§2) After incubation, bacterial growth was quantified by measurement of OD600 using an Epoch (BioTek, Winooski, VT) or Spark 10 M microplate reader (Tecan, Morrisville, NC). An OD600 reading of 0.08 or greater (approximately twice typical background readings in wells containing broth alone) was considered indicative of bacterial growth (as also appreciable by visual assessment).
(§3) Precision and accuracy. […] Modal DDM MICs were calculated by taking the mode of all DDM MIC measurements obtained for a given antibiotic-strain combination, inclusive of initial MIC titrations and single-antibiotic rows/columns in synergy arrays (Table 5).

The subject of experiment [5] is carbapenem-resistant Escherichia coli clinical isolates (blaKPC). Described as above. As to conditions: Escherichia coli, read-out: DDM modal MICs. The experiment is classed as cell-based. The protocol: as §1, §2, §3
In a further experiment the test system is E. coli ATCC 25922. In words: Microscopy-based AST (MAST): cell morphology at the MIC.
Experiment [6] concerns 4 bacterial screening strains (BIDMC 4, BIDMC 5, BIDMC 12A, and BIDMC 15). Nature of the experiment: Checkerboard synergy testing screen (FICI-MIN). It counts as cell-based, Klebsiella pneumoniae; Escherichia coli. The note with it: range over strains; read-out: MICs of the strains.
For another experiment, the system named is P. mirabilis ATCC 702. Nature of the experiment: MIC testing by broth microdilution and D300 digital dispensing (precision study). The note with it: precision study, EUCAST criteria.
Experiment [7] has as its system KPC-producing CRE K. pneumoniae strains. In words: Checkerboard synergy, spectrum of activity evaluation. The experiment is classed as cell-based, Klebsiella pneumoniae. As to conditions: strain BIDMC 18A.
Protocol: Spectrum of activity evaluation. […] Each selected combination was tested in duplicate on separate days against the 10 clinical KPC-producing CRE strains (5 K. pneumoniae and 5 E. coli) listed in Table 5, including the original 4 used in the synergy testing screen.
The next experiment deals with E. cloacae ATCC 13047. In words: MIC testing by broth microdilution and D300 digital dispensing (precision study). The experiment is classed as cell-based, Enterobacter cloacae. The note with it: EUCAST criteria.
Experiment [8] concerns carbapenem-resistant Enterobacteriaceae. The note with it: cited from earlier work.
In experiment [9] the test system is 14 Enterobacteriaceae strains presumptively expressing extended spectrum beta-lactamase enzymes. Nature of the experiment: Inoculum effect by digitally dispensed checkerboard of bacteria and antibiotic. It counts as cell-based. The note with it: inkjet printing method, inoculum above/below CLSI-recommended. From the text: Inoculum effect experiments comprise a series of broth microdilution experiments in which the cell density of the bacterial inoculum is varied (often 10-fold) across multiple identical doubling dilutions of antibiotics. The MICs are then interpreted at each inoculum concentration.
There is currently no practical way to test for an inoculum effect within the workflow of a clinical laboratory, as such testing would require a highly laborious manual process of testing different inoculum levels with several potential antimicrobials. […] By varying the droplet size during digital printing of a bacterial suspension as described in the preceding section, a desired inoculum of bacteria can be added to each testing well. More specifically, doubling dilutions of bacterial inocula can be performed if desired, thereby establishing the relationship between inoculum and MIC through an inoculum dose-response curve.
We investigated the inoculum effect for cefepime (a fourth generation cephalosporin) on 14 Enterobacteriaceae strains presumptively expressing extended spectrum beta-lactamase enzymes based on third generation cephalosporin resistance. Bacteria and antibiotics were both dispensed as orthogonal, combinatorial two-fold dilution series using our digital dispensing method to create a checkerboard array. […]

Converted amounts (≈) assume the structure as drawn. Like-named read-outs stand apart in the source and are kept apart here.

Protocol for E. coli ATCC 25922: Briefly, antibiotics are added to solidified microwell surfaces which are subsequently inoculated with 200 nL of a standardized bacterial suspension. Both antibiotic and bacterial cell dispensing are performed using the HP D300 system. Following incubation at 35±2° C., plates are imaged on a Zeiss Cell Observer microscope operating in brightfield mode with a 40X long working distance objective. The microscope is equipped with an automated stage. […] The z-position of the poloxamer surface in the first well is set manually after which the software directs the stage to each subsequent well, collecting a z-series (20 slices at 2 µM per slice with the center of the z-series defined by the microscope’s autofocus feature) with no further operator intervention. Z-series are collapsed using the Extended Depth of Focus feature in the Zeiss Zen Blue software and saved as individual images.
Microscopy-based AST (MAST). […] Two-hundred nL of bacteria in NaCl-P20 suspended at a density of 0.1 McFarland were then delivered to the center of each well by digital dispensing. Immediately after inoculation, plates were incubated at 35±2° C. for 2 hours, and held at room temperature for 2 hours during transport and imaging.
Plates were imaged with a Zeiss Cell Observer microscope with settings described in the “quantification of bacterial dispensing” section. Following manual selection of the z-position for the first well in the series, the microscope stage independently advanced to subsequent wells based on a plate map with the z-position updated automatically using the autofocus feature of the microscope control software (Zeiss Zen Blue software version 2.1 and 2.3). For each well, a z-series of 40 µm (step size = 2 µm) was automatically collected and projected to form a single image using the extended depth of focus module in the Zeiss Zen Blue software (version 2.1 and 2.3). […]
Protocol for P. mirabilis ATCC 702: Broth microdilution testing: Broth microdilution was performed using the colony suspension method according to CLSI guidelines (13). Colistin testing was consistent with the joint CLSI-EUCAST (European Committee on Antimicrobial Susceptibility Testing) Polymyxin Breakpoints Working Group guidelines (15). Serial two-fold dilutions of antimicrobials at double concentration were made in 96-well plates (Evergreen Scientific, Los Angeles, CA) using cation adjusted Mueller-Hinton broth (BD Diagnostics, Franklin Lakes, NJ) in a 50 µl volume. […] MIC was defined as the lowest concentration of antimicrobial resulting in complete inhibition of growth as determined visually.
Bacterial suspensions were prepared as for broth microdilution and adjusted directly to the final inoculum concentration of 5 × 10^5 CFU ml^-1 in a 50 µl total assay volume. […] Cell growth was quantified by measurement of optical density at 600 nm (OD600) with an Epoch microplate reader (BioTek, Winooski, VT). A custom python script was used to classify wells with OD600 ≧ 0.08 (approximately two-fold above typical background readings) as having bacterial growth. […]
Precision analysis: A precision analysis was conducted according to established guidelines (16, 17). […] The modal MIC for both methods was determined using MIC values for on-scale measurements. Log2 difference of each measurement from the mode was recorded.

In the case of `C[C@@H](O)[C@H]1C(=O)N2C(C(=O)O)=C(S[C@@H]3CN[C@H](C(=O)N(C)C)C3)[C@H](C)[C@H]12` [Meropenem (MEM), Meropenem], the “in vitro inoculum effect” value in experiment [1] was “insignificant inoculum effect”. Besides, the “Non-susceptible strains (%)” value in [2] was 17.5%. Also, the Non-susceptible strains n in experiment [2] stood at 14. Further, the MIC was determined as 0.03 mg/L (≈ 0.0782 µM) in experiment [2] (read-out: modal MIC); 32 mg/L in [4] (BIDMC 4, KPN, KPC type 3); 8 mg/L in experiment [4] (BIDMC 5, KPN, KPC type 3); 4 mg/L in [4] (BIDMC 10, KPN, KPC type 3); 8 mg/L in experiment [4] (BIDMC 12A, KPN, KPC type 3); 32 mg/L in experiment [4] (BIDMC 18A, KPN, KPC type 2). The MIC in experiment [5] (BIDMC 6, ECO, KPC type 2) worked out at 2 mg/L; in [5] (BIDMC 9, ECO, KPC type 2), 4 mg/L; in experiment [5] (BIDMC 15, ECO, KPC type 2), 4 mg/L; in experiment [5] (BIDMC 17A, ECO, KPC type 2), 2 mg/L; in experiment [5] (BIDMC 20A, ECO, KPC type 3) it was 1 mg/L. Moreover, the “survival of infected mice after treatment” value in experiment [3] (high dose inoculum) and in experiment [3] (low bacterial inoculum) was “survived” each time. Moreover, the “cell morphology at the MIC” value was “swelling” in the experiment on E. coli ATCC 25922 (E. coli after 2 hours, FIG. 13) and “rounded sphereoplasts” in the experiment with E. coli ATCC 25922 (MAST, 2-hour incubation).
As to `C[C@@H](O)[C@H]1C(=O)N2C(C(=O)O)=C(S[C@@H]3CN[C@H](C(=O)Nc4cccc(C(=O)O)c4)C3)[C@H](C)[C@H]12` [ETP, ertapenem], the MIC in experiment [6] was 8 to 64 mg/L; in experiment [4] (BIDMC 4, KPN, KPC type 3), 32 mg/L; in [4] (BIDMC 5, KPN, KPC type 3) it was 16 mg/L; in experiment [4] (BIDMC 10, KPN, KPC type 3) it was 16 mg/L; in experiment [4] (BIDMC 12A, KPN, KPC type 3) it was 32 mg/L; in experiment [4] (BIDMC 18A, KPN, KPC type 2), 64 mg/L. In addition, the MIC is 8 mg/L in experiment [5] (BIDMC 6, ECO, KPC type 2); 8 mg/L in [5] (BIDMC 9, ECO, KPC type 2); 32 mg/L in [5] (BIDMC 15, ECO, KPC type 2); 8 mg/L in experiment [5] (BIDMC 17A, ECO, KPC type 2); 4 mg/L in [5] (BIDMC 20A, ECO, KPC type 3).
Colistin [Colistin (CL)]: the categorical susceptibility result in the experiment on P. mirabilis ATCC 702 is on record as “resistance”. In experiment [2], the “Non-susceptible strains (%)” value turned out to be 21.5% and the Non-susceptible strains n was 17. Also, the MIC in [7] is given as over 128 mg/L. For the same compound, in experiment [4] (BIDMC 5, KPN, KPC type 3), the “DDM modal MICs” value is listed as 0.5 mg/L. For the same compound, the categorical susceptibility result in the experiment with E. cloacae ATCC 13047 is on record as “resistance”. In addition, the “share of carbapenem-resistant Enterobacteriaceae against which the drug is effective” value in experiment [8] is on record as over 85%.
As for `CO/N=C(\C(=O)N[C@@H]1C(=O)N2C(C(=O)[O-])=C(C[N+]3(C)CCCC3)CS[C@H]12)c1csc(N)n1` [FEP, cefepime], the MIC in experiment [4] (BIDMC 4, KPN, KPC type 3) stood at 64 mg/L; in experiment [4] (BIDMC 5, KPN, KPC type 3), 16 mg/L; in experiment [4] (BIDMC 10, KPN, KPC type 3), 16 mg/L; in experiment [4] (BIDMC 12A, KPN, KPC type 3), 16 mg/L; in experiment [5] (BIDMC 6, ECO, KPC type 2), 8 mg/L; in experiment [5] (BIDMC 9, ECO, KPC type 2), 32 mg/L. In addition, the MIC in experiment [5] (BIDMC 15, ECO, KPC type 2) came to 4 mg/L; in experiment [5] (BIDMC 17A, ECO, KPC type 2) it was 4 mg/L; in [5] (BIDMC 20A, ECO, KPC type 3), 8 mg/L. Moreover, the inoculum effect result in experiment [9] is “pronounced”. Moreover, the “cell morphology at the MIC” value in the experiment with E. coli ATCC 25922 (MAST, 2-hour incubation) was “filamented bacteria with a pronounced central bulge”.
